pIC50: −log10 of the molar value.
The compounds below were run against T1, human CCR1 (Homo sapiens, UniProt P32246) (assay: CCR1 binding protocol (SPA, [125I]-MIP-1α displacement)). Conditions: cell membrane expressing human CCR1, 0.1 nM [125I]-MIP-1α, 4 hours at ambient temperature; read-out: Relative potency (IC50).
T1 sequence (P32246 1-355): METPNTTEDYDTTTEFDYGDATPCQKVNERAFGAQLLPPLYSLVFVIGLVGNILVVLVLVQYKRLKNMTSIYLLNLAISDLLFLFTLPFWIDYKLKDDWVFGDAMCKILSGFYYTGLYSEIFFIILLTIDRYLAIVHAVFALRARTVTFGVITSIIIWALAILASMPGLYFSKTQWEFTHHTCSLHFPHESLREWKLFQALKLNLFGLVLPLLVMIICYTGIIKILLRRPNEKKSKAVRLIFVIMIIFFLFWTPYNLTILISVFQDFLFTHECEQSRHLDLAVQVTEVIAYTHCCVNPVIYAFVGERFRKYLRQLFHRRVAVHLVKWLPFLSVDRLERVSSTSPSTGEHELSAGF
Method in brief: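 Human CCR1 membranes (0.5 μg/well) on SPA beads were incubated with compound and 0.1 nM [125I]-MIP-1α (final) for 4 h at ambient temperature. Buffer was Tris pH 7.4 with NaCl, KCl, MnCl and 0.1% BSA. IC50 came from ½-log compound dilutions (10 mM top DMSO stock) by displacement of bound radioligand.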
`Cc1nnc([C@H]2CCCN2C(=O)NCC2CCCN(S(C)(=O)=O)C2)n1Cc1ccc(Cl)cc1` (stereo partly shown) [Compound 601] showed a pIC50 of 6.30 to 7.30. `Cc1noc(-c2ccccc2)c1NC(=O)N1CCC[C@@H]1c1nccn1Cc1ccc(Cl)cc1` [Compound 34] was tested, and the pIC50 was over 7.30. `COCc1nnc([C@H]2CCCN2C(=O)NCc2ccc(Cl)cc2Cl)n1Cc1ccc(Cl)cc1` [Compound 462] gave a pIC50 of 6.30 to 7.30. Work on `Cc1nnc([C@H]2CCCN2C(=O)N[C@@H](C)c2cc3cc(Cl)ccc3o2)n1Cc1ccc(Cl)cc1` [Compound 307] yielded a pIC50 of over 7.30. In the case of `Cc1nnc([C@H]2CCCN2C(=O)NCc2ccccc2)n1Cc1ccc(Cl)cc1` [Compound 224], the pIC50 was 6.30 to 7.30. `Cc1cc(C)c(S(=O)(=O)N(C)C)cc1NC(=O)N1CCC[C@@H]1c1nnc(C)n1Cc1ccc(F)cc1` [Compound 587] showed a pIC50 of over 7.30. `C[C@H](NC(=O)N1CCC[C@@H]1c1ncncc1Cc1ccc(Cl)cc1)c1ccc(C(F)(F)F)cc1` [Compound 20] gave a pIC50 of 6.30 to 7.30. With `Cc1nnc([C@H]2CC(F)CN2C(=O)Nc2ccc(Cl)cc2F)n1Cc1ccc(Cl)cc1` (stereo partly shown) [Compound 571] the pIC50 was 6.30 to 7.30. `Cc1nnc([C@H]2CCCN2C(=O)Nc2cc(C(=O)N(C)C)ccc2F)n1Cc1ccc(Cl)cc1` [Compound 302] was tested, and the pIC50 was 6.30 to 7.30. Compound `O=C(N[C@H]1CCOc2cc(C(F)(F)F)ccc21)N1CCC[C@@H]1c1nnc(C(F)(F)F)n1Cc1ccc(Cl)cc1` [Compound 235] has a pIC50 of 6.30 to 7.30. `CNC(=O)c1cc(C)ccc1NC(=O)N1CCC[C@@H]1c1nnc(C)n1Cc1ccc(Cl)cc1` [Compound 279] showed a pIC50 of 6.30 to 7.30. `Cc1nnc([C@H]2C[C@@H](O)CN2C(=O)NCc2ccc(C(F)(F)F)cc2)n1Cc1ccc(Cl)cc1` [Compound 439] showed a pIC50 of 6.30 to 7.30. With `Cc1nnc([C@H]2CCCN2C(=O)N[C@@H]2CCc3cc(Cl)ccc32)n1Cc1ccc(Cl)cc1` [Compound 143] the pIC50 was 6.30 to 7.30. For `Cc1cccc(C(=O)O)c1NC(=O)N1CCC[C@@H]1c1nnc(C)n1Cc1ccc(Cl)cc1` [Compound 251], the pIC50 was 5.30 to 6.30. Work on `Cc1nnc([C@H]2CCCN2C(=O)N[C@H]2CCOc3cc(C(F)(F)F)ccc32)n1Cc1ccc(Br)cc1` [Compound 537] yielded a pIC50 of over 7.30. Work on `O=C(N[C@H]1CCOc2cc(C(F)(F)F)ccc21)N1CCC[C@@H]1c1nnnn1Cc1ccc(Cl)cc1` [Compound 55] yielded a pIC50 of over 7.30. In the case of `Cc1nnc([C@H]2CCCN2C(=O)Nc2ccc(-c3ncccn3)cc2)n1Cc1ccc(Cl)cc1` [Compound 550], the pIC50 was 5.30 to 6.30. With `Cc1nc(C(F)(F)F)ncc1NC(=O)N1CCC[C@@H]1c1nnc(C)n1Cc1ccc(Cl)cc1` [Compound 431] the pIC50 was over 7.30. Work on `COC1CCC(NC(=O)N2CCC[C@@H]2c2nnc(C)n2Cc2ccc(Cl)cc2)CC1` (stereo partly shown) [Compound 292] yielded a pIC50 of 6.30 to 7.30. For `Cc1nc(C)c(NC(=O)N2CCC[C@@H]2c2nnc(C)n2Cc2ccc(Cl)cc2)c(C)n1` [Compound 326], the pIC50 was over 7.30. For `CC[C@H](C)NC(=O)N1CCC[C@@H]1c1nnc(C)n1Cc1ccc(Cl)cc1` [Compound 407], the pIC50 was 6.30 to 7.30. With `Cc1ccc(NC(=O)N2CCC[C@@H]2c2nnc(C)n2Cc2ccc(Cl)cc2)c(C)n1` [Compound 362] the pIC50 was over 7.30. `CC[C@@H](NC(=O)N1C[C@H](OC(C)=O)C[C@@H]1c1nnc(C)n1Cc1ccc(Cl)cc1)c1ccc(C)o1` [Compound 503] was tested, and the pIC50 was 5.30 to 6.30. With `Cc1nnc([C@H]2CCCN2C(=O)NCCC2CCCCO2)n1Cc1ccc(Cl)cc1` (stereo partly shown) [Compound 602] the pIC50 was 6.30 to 7.30. In the case of `Cc1nnc([C@H]2CCCN2C(=O)Nc2cc(C(F)(F)F)ccc2S(C)(=O)=O)n1Cc1ccc(Cl)cc1` [Compound 423], the pIC50 was 6.30 to 7.30. `Cc1nnc([C@H]2CCCN2C(=O)N[C@H]2CCOc3cc(C(F)(F)F)ccc32)n1[C@H](C)c1ccc(Cl)cc1` [Compound 353] showed a pIC50 of 6.30 to 7.30. Compound `Cc1nnc([C@H]2CCCN2C(=O)Nc2ccc(S(=O)(=O)O)cc2Cl)n1Cc1ccc(Cl)cc1` [Compound 456] has a pIC50 of 6.30 to 7.30. With `Cc1nnc([C@H]2CCCN2C(=O)NC2(c3ccccc3)CC2)n1Cc1ccc(Cl)nc1` [Compound 383] the pIC50 was 6.30 to 7.30. `CC(=O)O[C@@H]1C[C@H](c2ncnn2Cc2ccc(Cl)cc2)N(C(=O)N[C@H]2CCOc3cc(C(F)(F)F)ccc32)C1` [Compound 488] showed a pIC50 of over 7.30. `Cc1nnc([C@H]2C[C@H](O)CN2C(=O)Nc2ccc(Cl)cc2F)n1Cc1ccc(Cl)cc1` [Compound 435] showed a pIC50 of over 7.30. Work on `Cc1nc(C(F)(F)F)ccc1CC(=O)N1C[C@@H](O)C[C@@H]1c1nnc(C)n1Cc1ccc(Cl)cc1` [Compound 619] yielded a pIC50 of over 7.30. `COC(=O)c1cccc(C)c1NC(=O)N1CCC[C@@H]1c1nnc(C)n1Cc1ccc(Cl)cc1` [Compound 217] gave a pIC50 of over 7.30. Compound `Cc1nnc([C@H]2CCCN2/C(=N\C#N)N[C@H]2CCOc3cc(C(F)(F)F)ccc32)n1Cc1ccc(Cl)cc1` [Compound 260] has a pIC50 of 6.30 to 7.30. `Cc1onc(C(F)(F)F)c1NC(=O)N1CCC[C@@H]1c1nnc(C)n1Cc1ccc(Cl)cc1` [Compound 615] gave a pIC50 of over 7.30. `Cc1nc([C@H]2CCCN2C(=O)Nc2c(C)cc(C(F)(F)F)cc2C)n(Cc2ccc(Cl)cc2)n1` [Compound 94] showed a pIC50 of 6.30 to 7.30. For `O=C(NC(c1ccccc1)c1ccccc1)N1C[C@H](O)C[C@@H]1c1nncn1Cc1ccc(Cl)cc1` [Compound 476], the pIC50 was 6.30 to 7.30. In the case of `Cc1nnc([C@H]2CCCN2C(=O)Nc2ccc(Cl)cc2C#N)n1Cc1ccc(Cl)cc1` [Compound 417], the pIC50 was over 7.30. `CC(=O)N1CCC[C@H](NC(=O)N2CCC[C@@H]2c2nnc(C)n2Cc2ccc(Cl)cc2)C1` [Compound 232] was tested, and the pIC50 was 6.30 to 7.30. `Cc1nnc([C@H]2C[C@H](O)CN2C(=O)NCc2ccc(C(F)(F)F)cc2)n1Cc1ccc(Cl)cc1` [Compound 471] gave a pIC50 of over 7.30. `CC[C@H](Nc1c(N2CCC[C@@H]2c2nnc(C)n2Cc2ccc(Cl)cc2)c(=O)c1=O)c1ccc(C(F)(F)F)nc1` [Compound 562] showed a pIC50 of 6.30 to 7.30. In the case of `Cc1nc(C(F)(F)F)ccc1NC(=O)N1CC2CC2[C@@H]1c1nnc(C)n1Cc1ccc(Cl)cc1` (stereo partly shown) [Compound 563], the pIC50 was over 7.30. In the case of `O=C(NC1CCS(=O)(=O)c2ccccc21)N1CCC[C@@H]1c1ncnn1Cc1ccc(Cl)cc1` (stereo partly shown) [Compound 78], the pIC50 was 5.30 to 6.30. `Cc1nnc([C@H]2CCCN2C(=O)N[C@H]2CC(C)(C)Oc3cc(C(F)(F)F)ccc32)n1Cc1ccc(Cl)cc1` [Compound 268] showed a pIC50 of over 7.30. `O=C(NC1CCCOc2ccc(Cl)cc21)N1CCC[C@@H]1c1ncnn1Cc1ccc(Cl)cc1` (stereo partly shown) [Compound 84] showed a pIC50 of 6.30 to 7.30. `O=C(Nc1ccc(C(F)(F)F)cc1Cl)N1CCC[C@@H]1c1ncnn1Cc1ccc(Cl)cc1` [Compound 70] was tested, and the pIC50 was 6.30 to 7.30. `Cc1nnc([C@H]2CCCN2C(=O)N[C@@H](C)c2ccc(F)cc2)n1Cc1ccc(Cl)cc1` [Compound 218] gave a pIC50 of over 7.30. With `O=C(NCc1ccc(C(F)(F)F)cc1)N1CCC[C@@H]1c1nnc(Cl)n1Cc1ccc(Cl)cc1` [Compound 205] the pIC50 was over 7.30. With `Cc1nnc([C@H]2CCCN2C(=O)C[C@H](C)c2ccccc2)n1Cc1ccc(Cl)cc1` [Compound 479] the pIC50 was 6.30 to 7.30. For `Cc1nnc([C@H]2CCCN2C(=O)N[C@@H](C)c2ccccc2)n1Cc1ccc(Cl)cc1` [Compound 227], the pIC50 was 6.30 to 7.30. For `O=C(N[C@H]1CCOc2cc(C(F)(F)F)ccc21)N1C[C@H](O)C[C@@H]1c1nncn1Cc1ccc(Cl)cc1` [Compound 472], the pIC50 was over 7.30. Compound `Cc1nnc([C@H]2CCCN2C(=O)Nc2ccc3c(c2)N(C)C(=O)CO3)n1C1(c2ccc(Cl)cc2)CC1` [Compound 327] has a pIC50 of 6.30 to 7.30. `Cc1cccc(-c2noc(C)c2NC(=O)N2CCC[C@@H]2c2nnc(C)n2Cc2ccc(Cl)cc2)c1` [Compound 288] showed a pIC50 of over 7.30. `Cc1nnc([C@H]2CCCN2C(=O)NC(c2ccccc2)c2ccccc2)n1Cc1ccc(Cl)cc1` [Compound 128] was tested, and the pIC50 was over 7.30. Compound `Cc1nnc([C@H]2CCCN2C(=O)N[C@H]2CCOc3cc(C(F)(F)F)ccc32)n1Cc1ccc(Cl)c(Cl)c1` [Compound 410] has a pIC50 of 6.30 to 7.30. Work on `Cc1nnc([C@H]2CCCN2C(=O)Nc2ccc(Cl)c(Cl)c2)n1Cc1ccc(Cl)cc1` [Compound 424] yielded a pIC50 of 6.30 to 7.30. With `Cc1nc(C(F)(F)F)ccc1NC(=O)N1CCC[C@@H]1c1ncnn1Cc1ccc(Cl)cc1` [Compound 548] the pIC50 was 6.30 to 7.30. `Cc1ncccc1NC(=O)N1CCC[C@@H]1c1nnc(C)n1Cc1ccc(Cl)cc1` [Compound 223] was tested, and the pIC50 was 6.30 to 7.30. `Cc1nnc([C@H]2CCCN2C(=O)Nc2cccc(S(C)(=O)=O)c2)n1Cc1ccc(Cl)cc1` [Compound 334] gave a pIC50 of 5.30 to 6.30. `Cc1nc(C(F)(F)F)ccc1[C@H](C)NC(=O)N1CCC[C@@H]1c1nnc(C)n1Cc1ccc(Cl)cc1` [Compound 624] gave a pIC50 of over 7.30. For `Cc1nnc([C@H]2CCCN2C(=O)C[C@@H](C)c2ccccc2)n1Cc1ccc(Cl)cc1` [Compound 482], the pIC50 was 5.30 to 6.30. With `Cc1onc(-c2ccccc2)c1NC(=O)N1C[C@H](O)C[C@@H]1c1nnc(C)n1Cc1ccc(Cl)cc1` [Compound 392] the pIC50 was 6.30 to 7.30. With `Cc1cc(C(F)(F)F)cc(C)c1NC(=O)N1CCC[C@@H]1c1nncn1Cc1ccc(Cl)cc1` [Compound 101] the pIC50 was over 7.30. `Cc1nc(C(F)(F)F)ccc1NC(=O)N1CCC[C@@H]1c1nnc(C)n1Cc1ccc(Br)cc1` [Compound 535] was tested, and the pIC50 was over 7.30. `Cc1ncncc1NC(=O)N1CCC[C@@H]1c1nnc(C)n1Cc1ccc(Cl)cc1` [Compound 348] gave a pIC50 of over 7.30. `Cc1nnc([C@H]2CCCN2C(=O)Nc2c(Cl)nc(N)nc2Cl)n1Cc1ccc(Cl)cc1` [Compound 192] was tested, and the pIC50 was over 7.30. In the case of `Cc1onc(NC(=O)N2CCC[C@@H]2c2nnc(C)n2Cc2ccc(Cl)cc2)c1F` [Compound 590], the pIC50 was 6.30 to 7.30. Work on `Cc1nn(C)c(C)c1N/C(=N\C#N)N1CCC[C@@H]1c1nnc(C)n1Cc1ccc(Cl)cc1` [Compound 397] yielded a pIC50 of 6.30 to 7.30.
